Literature values as cited in patent publication US20140243296A1, “Organic Compounds” (Jagotec AG, priority 2011, published 2014).

Experiments:
CYP 3A4 isoform = CYP 3A4 isoform (Homo sapiens, UniProt P08684); settings: qualitative, prior-art knowledge
P-glycoprotein (Pgp) = P-glycoprotein (Pgp) (Homo sapiens, UniProt P08183); settings: qualitative, prior-art knowledge
[1] = qualitative

Sequence of CYP 3A4 isoform (P08684 whole entry, canonical isoform): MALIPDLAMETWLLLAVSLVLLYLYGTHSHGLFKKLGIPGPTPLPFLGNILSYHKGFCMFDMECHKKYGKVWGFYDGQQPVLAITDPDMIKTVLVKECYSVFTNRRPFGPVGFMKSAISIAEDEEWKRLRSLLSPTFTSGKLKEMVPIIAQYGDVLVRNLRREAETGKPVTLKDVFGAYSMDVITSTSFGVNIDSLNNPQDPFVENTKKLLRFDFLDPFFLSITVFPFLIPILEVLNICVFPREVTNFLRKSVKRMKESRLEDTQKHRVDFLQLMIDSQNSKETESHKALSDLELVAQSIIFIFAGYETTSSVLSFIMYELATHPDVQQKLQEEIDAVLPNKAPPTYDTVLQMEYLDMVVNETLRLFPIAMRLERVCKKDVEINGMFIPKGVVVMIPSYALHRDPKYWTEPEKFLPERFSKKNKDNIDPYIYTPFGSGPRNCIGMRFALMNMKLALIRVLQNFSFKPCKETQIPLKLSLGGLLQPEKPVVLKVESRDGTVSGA
Sequence of P-glycoprotein (Pgp) (P08183 whole entry): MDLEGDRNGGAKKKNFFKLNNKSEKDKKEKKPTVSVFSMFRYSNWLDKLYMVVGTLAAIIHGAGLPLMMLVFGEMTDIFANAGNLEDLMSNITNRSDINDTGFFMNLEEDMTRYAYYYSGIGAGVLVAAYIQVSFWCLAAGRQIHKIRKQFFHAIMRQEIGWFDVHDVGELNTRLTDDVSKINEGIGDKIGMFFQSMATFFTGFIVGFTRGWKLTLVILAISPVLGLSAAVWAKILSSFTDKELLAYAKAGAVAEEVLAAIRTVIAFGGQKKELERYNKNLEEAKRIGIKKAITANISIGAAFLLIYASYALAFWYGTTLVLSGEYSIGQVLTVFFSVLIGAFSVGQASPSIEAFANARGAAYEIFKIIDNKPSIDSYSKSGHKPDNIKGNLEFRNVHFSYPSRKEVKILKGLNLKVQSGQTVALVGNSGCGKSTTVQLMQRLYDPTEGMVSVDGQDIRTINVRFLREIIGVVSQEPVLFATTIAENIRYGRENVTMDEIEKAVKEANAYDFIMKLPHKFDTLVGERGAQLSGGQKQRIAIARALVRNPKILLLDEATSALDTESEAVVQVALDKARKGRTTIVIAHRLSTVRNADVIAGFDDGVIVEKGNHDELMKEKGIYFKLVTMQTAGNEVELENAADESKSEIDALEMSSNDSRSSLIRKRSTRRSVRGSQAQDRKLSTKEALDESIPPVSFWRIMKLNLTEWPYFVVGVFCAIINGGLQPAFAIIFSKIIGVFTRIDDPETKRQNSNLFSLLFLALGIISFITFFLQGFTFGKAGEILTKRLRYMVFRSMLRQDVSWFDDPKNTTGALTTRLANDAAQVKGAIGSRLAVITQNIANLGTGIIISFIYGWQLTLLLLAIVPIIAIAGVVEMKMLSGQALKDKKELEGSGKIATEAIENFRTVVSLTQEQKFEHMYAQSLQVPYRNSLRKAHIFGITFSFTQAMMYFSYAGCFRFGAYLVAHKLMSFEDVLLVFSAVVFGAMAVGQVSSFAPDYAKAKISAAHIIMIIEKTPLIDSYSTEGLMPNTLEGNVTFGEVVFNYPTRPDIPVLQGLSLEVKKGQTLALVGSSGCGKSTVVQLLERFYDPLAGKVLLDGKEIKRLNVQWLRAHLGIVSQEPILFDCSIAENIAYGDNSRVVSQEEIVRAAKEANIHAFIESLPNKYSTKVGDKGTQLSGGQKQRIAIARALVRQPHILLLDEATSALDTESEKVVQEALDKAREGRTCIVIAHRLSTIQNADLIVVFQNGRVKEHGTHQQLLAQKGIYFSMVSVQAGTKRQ

Row | SMILES | inhibition of / affinity towards CYP, particularly CYP 3A4 isoform (CYP 3A4 isoform) | other results
1 | CC(C)(C)NC(=O)[C@@H]1C[C@@H]2CCCC[C@@H]2CN1C[C@@H](O)[C@H](Cc1ccccc1)NC(=O)[C@H](CC(N)=O)NC(=O)c1ccc2ccccc2n1 [saquinavir] | weak inhibitors | 
2 | Cc1c(O)cccc1C(=O)N[C@@H](CSc1ccccc1)[C@H](O)CN1C[C@H]2CCCC[C@H]2C[C@H]1C(=O)NC(C)(C)C [nelfinavir] | modest inhibition | 
3 | CC(C)(C)NC(=O)[C@@H]1CN(Cc2cccnc2)CCN1C[C@@H](O)C[C@@H](Cc1ccccc1)C(=O)N[C@H]1c2ccccc2C[C@H]1O [indinavir] |  | inhibitory effect on / affinity for Pgp (P-glycoprotein (Pgp)): substantially no inhibitory effect
4 | CC(C)CN(C[C@@H](O)[C@H](Cc1ccccc1)NC(=O)O[C@H]1CO[C@H]2OCC[C@H]21)S(=O)(=O)c1ccc(N)cc1 [Darunavir, darunavir] |  | solubility [1]: poorly soluble
5 | CC(C)CN(C[C@@H](O)[C@H](Cc1ccccc1)NC(=O)O[C@H]1CCOC1)S(=O)(=O)c1ccc(N)cc1 [amprenavir] | weak inhibitors | 
